In article PMC9097292, “Activity of Estrogen Receptor β Agonists in Therapy-Resistant Estrogen Receptor-Positive Breast Cancer” (Frontiers in Oncology, 2022):

Tests used:
[1] = target: T1, ERβ (estrogen receptor β) (Homo sapiens, UniProt Q92731); experiment: ERE-luciferase reporter assay in HEK293T cells transfected with Flag-ERβ (agonist); type: cell-based
T1 construct: gene ESR2; c-Flag ERβ (OHu25562D; pcDNA3.1+/C-(K) DYK)

[2] = target: T2, ERα (estrogen receptor α) (Homo sapiens, UniProt P03372); experiment: ERE-luciferase reporter assay in HEK293T cells transfected with Flag-ERα (weaker activation than ERβ); type: cell-based
T2 construct: gene ESR1; c-Flag ERα (OHu26586D; pcDNA3.1+/C-(K) DYK)
T2 sequence (P03372 1-595): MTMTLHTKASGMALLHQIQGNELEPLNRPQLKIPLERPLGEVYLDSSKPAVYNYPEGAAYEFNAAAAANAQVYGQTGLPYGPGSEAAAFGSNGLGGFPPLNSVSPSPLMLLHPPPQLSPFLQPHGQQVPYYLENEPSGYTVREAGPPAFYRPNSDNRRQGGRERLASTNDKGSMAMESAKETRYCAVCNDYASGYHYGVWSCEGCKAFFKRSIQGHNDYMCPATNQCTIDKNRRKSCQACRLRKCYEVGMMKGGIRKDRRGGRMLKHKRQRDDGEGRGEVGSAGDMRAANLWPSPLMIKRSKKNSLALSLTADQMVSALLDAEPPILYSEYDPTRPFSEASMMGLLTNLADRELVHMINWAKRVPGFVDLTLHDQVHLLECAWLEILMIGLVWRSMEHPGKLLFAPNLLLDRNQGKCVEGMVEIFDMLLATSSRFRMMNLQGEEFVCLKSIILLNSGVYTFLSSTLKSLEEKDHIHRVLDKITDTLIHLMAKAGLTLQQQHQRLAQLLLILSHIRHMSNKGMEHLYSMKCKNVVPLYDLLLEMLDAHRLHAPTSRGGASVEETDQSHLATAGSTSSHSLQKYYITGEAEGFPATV

T1 sequence (Q92731 whole entry): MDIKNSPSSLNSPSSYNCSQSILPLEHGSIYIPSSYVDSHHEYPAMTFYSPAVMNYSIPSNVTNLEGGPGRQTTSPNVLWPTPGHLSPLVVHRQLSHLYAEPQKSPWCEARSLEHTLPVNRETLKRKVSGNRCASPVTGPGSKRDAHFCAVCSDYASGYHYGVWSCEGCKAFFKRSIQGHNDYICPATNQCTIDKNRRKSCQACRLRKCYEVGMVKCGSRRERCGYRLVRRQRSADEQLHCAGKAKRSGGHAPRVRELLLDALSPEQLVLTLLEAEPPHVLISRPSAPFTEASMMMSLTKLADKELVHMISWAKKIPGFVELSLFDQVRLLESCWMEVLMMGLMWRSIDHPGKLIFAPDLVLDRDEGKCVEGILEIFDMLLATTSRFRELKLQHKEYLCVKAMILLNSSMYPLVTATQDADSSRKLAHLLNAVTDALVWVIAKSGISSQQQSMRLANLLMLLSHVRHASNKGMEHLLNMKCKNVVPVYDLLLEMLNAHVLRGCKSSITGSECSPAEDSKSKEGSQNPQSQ

Compound	fold induction at 0.01 µM ([1]; HEK-293T, read-out: ERE-luciferase reporter assay in HEK293T cells transfected with Flag-ERβ (agonis))	fold induction at 0.01 µM ([2]; HEK-293T)	ERE-luciferase reporter assay in HEK293T cells transfected with Flag-ERβ (agonis) ([1]; hek293t cells, 0.03 µM)	ERE-luciferase reporter assay in HEK293T cells transfected with Flag-ERα (weaker) ([2]; hek293t cells, 0.03 µM)
Oc1ccc([C@@H]2Oc3ccc(O)cc3[C@@H]3CCC[C@@H]32)cc1 [LY500307]	84	2.1	–	–
OSU-ERb-12	–	–	~ 40 fold activation at 30 nmol/l	~ 4 fold activation at 30 nmol/l
